Here are results for 22 compounds from US8119624B2, “Fused phenyl amido heterocyclic compounds” (Pfizer Inc., priority 2006, dated 2012).

What is called EC50 is the concentration needed to bring the measured effect to its halfway point.

Structures are written as SMILES.

The target of this test is T1, Full-length glucokinase (beta cell isoform) (Homo sapiens, UniProt P35557).
T1 construct: Full-length glucokinase (beta cell isoform) was His-tagged at N-terminus; His tag (N); made in house
T1 sequence (P35557 1-465): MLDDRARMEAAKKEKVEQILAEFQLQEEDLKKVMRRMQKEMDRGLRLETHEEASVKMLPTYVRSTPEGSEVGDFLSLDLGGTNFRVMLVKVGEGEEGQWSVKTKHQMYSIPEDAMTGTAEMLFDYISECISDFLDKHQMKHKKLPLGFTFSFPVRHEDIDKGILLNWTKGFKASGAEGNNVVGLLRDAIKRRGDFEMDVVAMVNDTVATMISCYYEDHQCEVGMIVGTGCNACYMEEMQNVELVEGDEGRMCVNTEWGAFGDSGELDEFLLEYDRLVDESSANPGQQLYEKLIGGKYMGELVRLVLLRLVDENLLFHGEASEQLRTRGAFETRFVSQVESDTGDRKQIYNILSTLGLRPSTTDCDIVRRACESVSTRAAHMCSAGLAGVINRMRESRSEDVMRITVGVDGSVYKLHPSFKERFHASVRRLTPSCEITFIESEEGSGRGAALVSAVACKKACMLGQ
Briefly: Glucokinase biochemical assay (PK/LDH-coupled, NADH depletion at 340 nm): % activation, EC50, % max activation. As to conditions: 5 mM glucose; for activation at 10 µM: 10 uM compound, % Activation=(Va/Vo−1)×100, read-out: % Activation at 10 uM; for EC50: GK activation, read-out: EC50; for Emax: fitted maximum activation, read-out: % Max Activation. The method, boiled down: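 Activation expressed as (Va/Vo−1)×100, where initial rates with and without compound come from NADH depletion at 340 nm over 200–900 s. Enzyme is His-tagged human beta-cell GK, full length, run at room temperature in HEPES buffer with 1 mM ATP and 5 mM glucose. DMSO 1%.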

On to `CN(C)C(=O)c1ccc(Oc2cc(C(=O)Nc3ccn(C)n3)cc3c2CC(C)(C)O3)cc1` [Example 149, 4-(4-Dimethylcarbamoyl-phenoxy)-2,2-dimethyl-2,3-dihydro-benzofuran-6-carboxylic acid (1-methyl-1H-pyrazol-3-yl)-amide], for which the activation at 10 µM is 105%, the concentration giving a half-maximal response (EC50) was determined as 120 nM and the Emax was determined as 104%.
Regarding `Cc1ccc(NC(=O)c2cc(Oc3ccc(C(=O)N(C)C)cc3)c3c(c2)OC(C)(C)C3)nc1` [Example 150, 4-(4-Dimethylcarbamoyl-phenoxy)-2,2-dimethyl-2,3-dihydro-benzofuran-6-carboxylic acid (5-methyl-pyridin-2-yl)-amide], the activation at 10 µM was determined as 39.1%, the EC50 came out at 110 nM and the Emax was determined as 55%.
Consider `CN(C)C(=O)c1ccc(Oc2cc(C(=O)Nc3cnccn3)cc3c2CC(C)(C)O3)cc1` [Example 151, 4-(4-Dimethylcarbamoyl-phenoxy)-2,2-dimethyl-2,3-dihydro-benzofuran-6-carboxylic acid pyrazin-2-ylamide], for which the activation at 10 µM amounted to 98.1%, the EC50 was determined as 470 nM and the Emax was 97%.
In the same order, the values of `CN(C)C(=O)c1ccc(Oc2cc(C(=O)Nc3cc[nH]n3)cc3c2CC(C)(C)O3)cc1` [Example 152, 4-(4-Dimethylcarbamoyl-phenoxy)-2,2-dimethyl-2,3-dihydro-benzofuran-6-carboxylic acid (1H-pyrazol-3-yl)-amide] are 90.7%, 850 nM and 98%.
With `CN(C)C(=O)c1ccc(Oc2cc(C(=O)Nc3cnn(C)n3)cc3c2CC(C)(C)O3)cc1` [Example 153, 4-(4-Dimethylcarbamoyl-phenoxy)-2,2-dimethyl-2,3-dihydro-benzofuran-6-carboxylic acid (2-methyl-2H-[1,2,3]triazol-4-yl)-amide], the activation at 10 µM came out at 168%, the half-maximal effective concentration (EC50) was 150 nM and the Emax is 161%.
The corresponding values for `Cc1cc(NC(=O)c2cc(Oc3ccc(C(=O)N(C)C)cc3)c3c(c2)OC(C)(C)C3)no1` [Example 154, 4-(4-Dimethylcarbamoyl-phenoxy)-2,2-dimethyl-2,3-dihydro-benzofuran-6-carboxylic acid (5-methyl-isoxazol-3-yl)-amide] are 36.3%, 4000 nM and 54%.
Consider `CN(C)C(=O)c1ccc(Oc2cc(C(=O)Nc3ccc(CO)cn3)cc3c2CC(C)(C)O3)cc1` [Example 155, 4-(4-Dimethylcarbamoyl-phenoxy)-2,2-dimethyl-2,3-dihydro-benzofuran-6-carboxylic acid (5-hydroxymethyl-pyridin-2-yl)-amide], for which the activation at 10 µM stood at 38.4%, the half-maximal effective concentration (EC50) came out at 90 nM and the Emax is 43%.
On to `CN(C)C(=O)c1ccc(Oc2cc(C(=O)Nc3ccncn3)cc3c2CC(C)(C)O3)cc1` [Example 156, 4-(4-Dimethylcarbamoyl-phenoxy)-2,2-dimethyl-2,3-dihydro-benzofuran-6-carboxylic acid pyrimidin-4-ylamide], for which the activation at 10 µM amounted to 52%, the EC50 amounted to 460 nM and the Emax turned out to be 49%.
The corresponding values for `CN(C)C(=O)c1ccc(Oc2cc(C(=O)Nc3ccccn3)cc3c2CC(C)(C)O3)cc1` [Example 157, 4-(4-Dimethylcarbamoyl-phenoxy)-2,2-dimethyl-2,3-dihydro-benzofuran-6-carboxylic acid pyridin-2-ylamide] are 69.2%, 190 nM and 71%.
With `CN(C)C(=O)c1ccc(Oc2cc(C(=O)Nc3ccon3)cc3c2CC(C)(C)O3)cc1` [Example 158, 4-(4-Dimethylcarbamoyl-phenoxy)-2,2-dimethyl-2,3-dihydro-benzofuran-6-carboxylic acid isoxazol-3-ylamide], the activation at 10 µM was 115%, the EC50 turned out to be 470 nM and the Emax stood at 106%.
With `Cn1ncc(NC(=O)c2cc(Oc3ccc(C(=O)N4CCC4)c(F)c3)c3c(c2)OC(C)(C)C3)n1` [Example 159, 4-[4-(Azetidine-1-carbonyl)-3-fluoro-phenoxy]-2,2-dimethyl-2,3-dihydro-benzofuran-6-carboxylic acid (2-methyl-2H-[1,2,3]triazol-4-yl)-amide], the activation at 10 µM was 243%, the 50% effective concentration (EC50) is 150 nM and the Emax was 260%.
In the same order, the values of `Cn1ncc(NC(=O)c2cc(Oc3ccc(C(=O)N4CCC4)cc3)c3c(c2)OC(C)(C)C3)n1` [Example 160, 4-[4-(Azetidine-1-carbonyl)-phenoxy]-2,2-dimethyl-2,3-dihydro-benzofuran-6-carboxylic acid (2-methyl-2H-[1,2,3]triazol-4-yl)-amide] are 298%, 130 nM and 250%.
In the same order, the values of `CN(C)C(=O)c1ccc(Oc2cc(C(=O)Nc3ccn(C)n3)cc3c2CC(C)(C)O3)cn1` [Example 161, 5-[2,2-Dimethyl-6-(1-methyl-1H-pyrazol-3-ylcarbamoyl)-2,3-dihydro-benzofuran-4-yloxy]-pyridine-2-carboxylic acid dimethylamide] are 191%, 175 nM and 143%.
`CN(C)C(=O)c1ccc(Oc2cc(C(=O)Nc3ccn(C)n3)cc3c2CC(C)(C)O3)nc1` [Example 162, 6-[2,2-Dimethyl-6-(1-methyl-1H-pyrazol-3-ylcarbamoyl)-2,3-dihydro-benzofuran-4-yloxy]-N,N-dimethyl-nicotinamide]: the activation at 10 µM came to 105%, the EC50 is 1600 nM and the Emax amounted to 135%.
In the same order, the values of `Cn1ccc(NC(=O)c2cc(Oc3ccc(C(=O)Nc4ccn(C)n4)nc3)c3c(c2)OC(C)(C)C3)n1` [Example 163, 5-[2,2-Dimethyl-6-(1-methyl-1H-pyrazol-3-ylcarbamoyl)-2,3-dihydro-benzofuran-4-yloxy]-pyridine-2-carboxylic acid (1-methyl-1H-pyrazol-3-yl)-amide] are 118%, 440 nM and 137%.
`CN(C)C(=O)c1ncc(Oc2cc(C(=O)Nc3ccn(C)n3)cc3c2CC(C)(C)O3)cn1` [Example 164, 5-[2,2-Dimethyl-6-(1-methyl-1H-pyrazol-3-ylcarbamoyl)-2,3-dihydro-benzofuran-4-yloxy]-pyrimidine-2-carboxylic acid dimethylamide]: the activation at 10 µM is 112%, the EC50 worked out at 250 nM and the Emax was 102%.
The corresponding values for `Cc1ccc(NC(=O)c2cc(Oc3ccc(C(=O)N(C)C)nc3)c3c(c2)OC(C)(C)C3)nc1` [Example 165, 5-[2,2-Dimethyl-6-(5-methyl-pyridin-2-ylcarbamoyl)-2,3-dihydro-benzofuran-4-yloxy]-pyridine-2-carboxylic acid dimethylamide] are 76.8%, 38 nM and 57%.
With `CNC(=O)c1ccc(Oc2cc(C(=O)Nc3ccn(C)n3)cc3c2CC(C)(C)O3)cn1` [Example 166, 5-[2,2-Dimethyl-6-(1-methyl-1H-pyrazol-3-ylcarbamoyl)-2,3-dihydro-benzofuran-4-yloxy]-pyridine-2-carboxylic acid methylamide], the activation at 10 µM worked out at 203%, the concentration giving a half-maximal response (EC50) turned out to be 410 nM and the Emax stood at 212%.
With `Cn1ccc(NC(=O)c2cc(Oc3ccc(C(=O)N4CCC4)nc3)c3c(c2)OC(C)(C)C3)n1` [Example 167, 4-[6-(Azetidine-1-carbonyl)-pyridin-3-yloxy]-2,2-dimethyl-2,3-dihydro-benzofuran-6-carboxylic acid (1-methyl-1H-pyrazol-3-yl)-amide], the activation at 10 µM came out at 148%, the EC50 worked out at 55.3 nM and the Emax is 146%.
As to `CCNC(=O)c1ccc(Oc2cc(C(=O)Nc3ccn(C)n3)cc3c2CC(C)(C)O3)cn1` [Example 168, 5-[2,2-Dimethyl-6-(1-methyl-1H-pyrazol-3-ylcarbamoyl)-2,3-dihydro-benzofuran-4-yloxy]-pyridine-2-carboxylic acid ethylamide], the activation at 10 µM worked out at 172%, the EC50 was 199 nM and the Emax came out at 184%.
In the case of `Cn1ncc(NC(=O)c2cc(Oc3ccc(C(=O)N4CCC4)nc3)c3c(c2)OC(C)(C)C3)n1` [Example 169, 4-[6-(Azetidine-1-carbonyl)-pyridin-3-yloxy]-2,2-dimethyl-2,3-dihydro-benzofuran-6-carboxylic acid (2-methyl-2H-[1,2,3]triazol-4-yl)-amide], the activation at 10 µM is 125%, the EC50 amounted to 56 nM and the Emax was 141%.
As for `CNC(=O)c1ccc(Oc2cc(C(=O)Nc3cnn(C)n3)cc3c2CC(C)(C)O3)cn1` [Example 170, 5-[2,2-Dimethyl-6-(2-methyl-2H-[1,2,3]triazol-4-ylcarbamoyl)-2,3-dihydro-benzofuran-4-yloxy]-pyridine-2-carboxylic acid methylamide], the activation at 10 µM stood at 264%, the EC50 came to 300 nM and the Emax was determined as 255%.
